This passage reports inhibition results from article PMC10837223, “Acute antiarrhythmic effects of SGLT2 inhibitors–dapagliflozin lowers the excitability of atrial cardiomyocytes” (Basic Research in Cardiology, 2024).

For the test, the target named is T1, NaV1.5 (Homo sapiens, UniProt Q14524, Y1767A).
T1 construct: gene SCN5A
Nature of the test: cell-based. Conditions: CHO, read-out: % reduction at 100 μmol/L.

T1 sequence (Q14524 whole entry Y1767A): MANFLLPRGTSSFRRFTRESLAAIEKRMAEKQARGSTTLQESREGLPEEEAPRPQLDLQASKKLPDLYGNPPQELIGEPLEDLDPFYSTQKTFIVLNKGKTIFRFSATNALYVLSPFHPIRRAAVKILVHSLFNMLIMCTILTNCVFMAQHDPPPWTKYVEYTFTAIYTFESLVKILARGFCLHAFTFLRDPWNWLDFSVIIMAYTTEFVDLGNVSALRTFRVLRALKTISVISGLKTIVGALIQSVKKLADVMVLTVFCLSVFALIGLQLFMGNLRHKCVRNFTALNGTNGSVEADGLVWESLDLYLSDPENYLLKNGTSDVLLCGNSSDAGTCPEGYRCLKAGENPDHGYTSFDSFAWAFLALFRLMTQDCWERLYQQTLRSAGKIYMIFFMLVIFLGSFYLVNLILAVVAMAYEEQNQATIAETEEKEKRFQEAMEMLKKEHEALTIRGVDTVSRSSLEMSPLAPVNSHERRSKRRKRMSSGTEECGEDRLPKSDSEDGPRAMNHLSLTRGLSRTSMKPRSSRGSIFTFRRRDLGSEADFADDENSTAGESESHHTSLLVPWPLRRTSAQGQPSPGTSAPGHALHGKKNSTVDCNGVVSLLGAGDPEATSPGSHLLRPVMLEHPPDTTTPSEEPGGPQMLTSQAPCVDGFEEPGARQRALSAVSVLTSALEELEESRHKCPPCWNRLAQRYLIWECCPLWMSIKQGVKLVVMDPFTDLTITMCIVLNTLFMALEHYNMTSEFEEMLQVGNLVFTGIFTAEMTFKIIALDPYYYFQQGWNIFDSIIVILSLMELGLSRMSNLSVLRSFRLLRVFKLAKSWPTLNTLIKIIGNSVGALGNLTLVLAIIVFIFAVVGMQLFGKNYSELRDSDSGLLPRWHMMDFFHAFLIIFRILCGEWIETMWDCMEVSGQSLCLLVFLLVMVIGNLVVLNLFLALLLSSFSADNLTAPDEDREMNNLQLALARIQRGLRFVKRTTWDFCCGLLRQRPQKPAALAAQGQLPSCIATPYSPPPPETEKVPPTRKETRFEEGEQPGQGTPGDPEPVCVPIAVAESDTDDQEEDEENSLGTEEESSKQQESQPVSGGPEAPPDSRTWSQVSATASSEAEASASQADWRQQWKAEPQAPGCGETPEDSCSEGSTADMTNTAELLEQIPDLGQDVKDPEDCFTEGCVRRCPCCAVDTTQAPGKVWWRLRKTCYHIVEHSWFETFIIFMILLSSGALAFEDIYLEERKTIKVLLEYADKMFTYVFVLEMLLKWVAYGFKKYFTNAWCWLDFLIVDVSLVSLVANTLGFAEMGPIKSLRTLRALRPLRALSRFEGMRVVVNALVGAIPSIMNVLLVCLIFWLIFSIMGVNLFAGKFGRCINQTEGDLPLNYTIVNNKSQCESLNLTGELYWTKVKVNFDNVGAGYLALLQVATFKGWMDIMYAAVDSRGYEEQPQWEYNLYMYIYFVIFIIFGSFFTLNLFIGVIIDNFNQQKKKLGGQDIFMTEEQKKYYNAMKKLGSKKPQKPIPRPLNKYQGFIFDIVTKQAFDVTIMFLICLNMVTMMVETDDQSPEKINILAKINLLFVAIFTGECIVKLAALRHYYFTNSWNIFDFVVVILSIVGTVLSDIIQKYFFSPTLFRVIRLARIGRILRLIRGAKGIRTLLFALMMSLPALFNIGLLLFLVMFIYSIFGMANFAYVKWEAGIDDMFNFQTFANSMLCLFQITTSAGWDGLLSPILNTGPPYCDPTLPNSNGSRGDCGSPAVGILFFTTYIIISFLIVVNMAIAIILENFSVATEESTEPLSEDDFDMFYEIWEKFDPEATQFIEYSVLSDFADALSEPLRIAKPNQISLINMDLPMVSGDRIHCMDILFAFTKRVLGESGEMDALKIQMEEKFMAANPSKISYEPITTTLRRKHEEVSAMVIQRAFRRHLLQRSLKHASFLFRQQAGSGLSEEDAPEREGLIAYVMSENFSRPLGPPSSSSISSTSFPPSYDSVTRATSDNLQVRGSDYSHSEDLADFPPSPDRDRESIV

For the compound `CCOc1ccc(Cc2cc([C@@H]3O[C@H](CO)[C@@H](O)[C@H](O)[C@H]3O)ccc2Cl)cc1` [dapagliflozin], the inhibition at 100 µM came to 68.3 ± 4.2%.
